Where two headings read alike, the source gives them in different places. Values belong to the compound of their own block, whether it stands above or below them. Ends that are not written are not given here. Peptide text beside a SMILES is read from it. carboranyl propanoic acid = 2-o-carboranylpropanoic acid
Assays:
[1] = system: corpora allata of the cockroach Diploptera punctata (JH biosynthesis); assay: In vitro radiochemical assay of JH biosynthesis/release by corpora allata; format: cell-based; conditions: for bioactivity (inhibition of JH biosynthesis): result in words
Protocol: Rates of JH release were determined by the in vitro radiochemical method of Feyereisen and Tobe (Anal. Biochem., 111:372–375, 1981) and as modified by Tobe and Clarke (Tobe and Clarke, Insect Biochem., 15:175–179, 1985). The incorporation of L[^14C—S-methyl]-methionine (50 μM, specific radioactivity 1.48–2.03 GBq/mmol from New England Nuclear or Amersham) into JH III at its penultimate step of biosynthesis by CA incubated in 50 μl TC 199 (GIBCO, 1.3 mM Ca^2+, 2% Ficoll, methionine-free) was used to quantify JH release. Animals were anaesthetized on ice prior to dissection. Corpora allata were dissected directly into non-radioactive medium (only animals with oviposited basal oocytes were used for assay). Samples were dried with nitrogen and resuspended in 10 μl 1N HCl. Radioactive medium was added and neutralized with 10 μl NaOH. Individual CA were transferred from non-radioactive medium to radioactive medium and were incubated for 3 h. The amount of inhibition was expressed as the percent reduction from the untreated rate: [1-(treated rate/untreated rate))] ×100%. Each value represents replicate incubations of a minimum of 8 tests.
D. punctata females mate almost immediately following emergence. Therefore, newly emerged, mated females were transferred each day from the stock culture to an incubator and kept at 27±1° C. The relative humidity was approximately 50% with a 12 hour light:dark cycle. Insects were reared on Purina Lab Chow and water. Mating was confirmed by the presence of a spermatophore. Basal oocyte length was also measured (day 5=1.44–1.68 mm). Only day 5 mated females were utilized for the degradation studies. Day 7 mated females (only with oviposited basal oocytes) were the source of corpora allata for analysis of JH biosynthesis.
Radiochemical assays were conducted as described in Example 1.

in vitro [2] = format: in vitro ADME, Diploptera punctata
Protocol: (§1) Day 5 mated female D. punctata were anaesthetized on ice before dissection. Following dissection, tissues were stored in saline (0.9% NaCl pH 7.0–7.2 or cockroach saline; […] at pH 7.2–7.4) on ice. Tissues were cleaned of fat body and trachea and guts were cleaned. Midgut peritrophic membrane was removed, midguts cut open, the guts gently pulled through forceps and then washed 3×. Tissues were stored at −70° C. until sufficient material was collected.
(§2) Hemolymph was collected following the method of King and Tobe (Insect Biochem., 18:793–805, 1988). Hemolymph was diluted 100× with saline.
(§3) Crude membrane preparation or hemolymph was aliquoted into 1.5 ml microcentrifuge tubes for in vitro assay. Dip-AST5 (6 μM) or analog was added to each assay tube from a 1 mM stock solution. Total incubation volume was 500 μl. Tubes were placed on a shaker at room temp for the duration of the incubation time. Incubations were terminated by the addition of 200 μl 30% aqueous TFA. Samples were centrifuged at 10,000 g and the supernatant was applied to a C18 solid phase extraction column. None of the potential, synthetic Dip-AST5 metabolites are lost (unpublished data). The 17–40% acetonitrile fraction was concentrated with a Speed-Vac apparatus and held at −70° C. until HPLC analysis. Samples is were diluted in 0.5 ml 0.1% aqueous TFA, filtered through 0.2 μm micro-spin filters and injected onto the HPLC column. Separation of allatostatins and their catabolites, or analogs and their catabolites, was performed using reversed-phase HPLC (see HPLC methods). When available, retention times of synthetic metabolites were used as a reference to identify endogenous metabolites. Dip-AST5 fragments were synthesized by the Institute for Biosciences and Technology, Dept. of Entomology, Texas A & M University. Dip-ASTs were synthesized by the Core Facility of Insect Biotech Canada (Department of Biochemistry, Queen's University) or obtained from Sigma Chemical Co., St. Louis, Mo. 63178 USA. The identity of fragments resulting from peptidase degradation was also confirmed by FAB mass spectrometry by adding samples in a glycerol medium (1.5 μl) onto a copper probe, followed by bombardment with 8 kV Xe atoms on a Kratos MS-50 mass spectrometer. (Kratos, Manchester, UK).
(§4) Degradation experiments were analyzed by RP-HPLC using a 220×4.6 mm Brownlee Phenyl column (5 μm) on a Spectra-Physics chromatography system with a Spectra-Physics Chromjet integrator and a Spectra-Physics 8490 detector. Following a 5 min wash with 1.5% acetonitrile in 0.1 aqueous TFA, a linear gradient of acetonitrile (15–37.5% in 50 min; 37.5–65% in 5 min) at a flow rate of 0.5 ml/min was used to elute peptides and analogs. […]

hemolymph peptidases = assay: in vitro; format: in vitro ADME, Diploptera punctata; conditions: female, Diploptera punctata
Protocol: as §1, §2, §3, §4

in vitro [3] = format: in vitro ADME, Diploptera punctata; remark: listed apart in the source
Protocol: as §1
(§5) Tissues were pooled and homogenized in saline on ice in microcentrifuge tubes (2.5 ml) for 2 min with an Omni hand held homogenizer. Homogenates were centrifuged at 1000 g for ten min at 4° C. to remove cellular debris. The pellet was discarded. Supernatant was subsequently centrifuged at 30,000 g for 30 min. Pellet (crude membrane preparation) was washed three times in homogenization buffer and resuspended in saline using the Omni homogenizer.
as §3
(§6) Degradation experiments were analyzed by RP-HPLC using a 220×4.6 mm Brownlee Phenyl column (5 μm) on a Spectra-Physics chromatography system with a Spectra-Physics Chromjet integrator and a Spectra-Physics 8490 detector. Following a 5 min wash with 1.5% acetonitrile in 0.1 aqueous TFA, a linear gradient of acetonitrile (15–37.5% in 50 min; 37.5–65% in 5 min) at a flow rate of 0.5 ml/min was used to elute peptides and analogs. Fractions (0.5 ml) were collected each minute during the gradient run.

brain peptidases = assay: in vitro; format: in vitro ADME, Diploptera punctata; conditions: female, tissue homogenate; for half-life at 6 μM: Diploptera punctata
Protocol: as §1, §5, §3, §6

midgut peptidases = assay: in vitro; format: in vitro ADME, Diploptera punctata; conditions: female, tissue homogenate
Protocol: as §1, §5, §3, §6

[4] = Penetration of analog through isolated cockroach cuticle (RPLC of well contents); format: in vitro ADME, American cockroach
Protocol: Adults of the American cockroach were obtained from. colonies at our facility (CMAVE). Animals, anesthetized by submersion in H2O for 30 min, were pinned ventral side up in a wax dissecting dish flooded with water. Lateral incisions along the margins of the abdominal sternites were made between segments 1–7. The epidermal layers including the cuticle and epidermal cells were lifted up and associated tissue was cleared using forceps prior to removal. The epidermal tissue was placed cell side up on a microscope slide and the cells were scraped from the cuticle using a glass cover slip. To further clean the cuticle of cellular debris the tissue was floated, cell side down, in a beaker containing H2O and subjected to sonication in a water bath at 30° C. for 30 min. The cuticle strips were then washed 3× in clean water. Pieces of cuticle, ca. 0.4 cm^2, composed of individual sternites without associated intersegmental membranes were then dissected away from remaining cuticle.
Incubation of cuticle was accomplished using the wells of ELISA plates (Corning, 96 well Easy Wash). […]
Dried samples were reconstituted in 35% acetonitrile (MeCN) (Burdick and Jackson) prior to analysis. […] Data acquired from analyses were reduced and analyzed using NCSS 97 software using regression analysis and T-Tests.

[5] = 3 h in vitro radiochemical assay, single 7-day mated CA, read-out: IC50, half-maximal inhibition of JH release

Compound: CC(C)C[C@H](NC(=O)C1(NC(=O)[C@H](Cc2ccccc2)NC(=O)[C@H](CC(N)=O)NC(=O)CCc2ccccc2)CC1)C(N)=O [AST(b)φ2, Hca-Asn-Phe-Cpa-Leu-NH2] (HELM PEPTIDE1{[O=C(CCc1ccccc1)[*:2]].N.F.[O=C(C1(N[*:1])CC1)[*:2]].L.[am]}$$$$V2.0)
IC50 [1, 5]: 1550 nM
bioactivity (inhibition of JH biosynthesis) [1]: significant biological activity
longer half-life than the native neuropeptide Dip-AST5 (in vitro [2]): 8 fold
resistance to degradation by enzymes (in vitro [2]): extreme resistance
half-life at 6 μM (hemolymph peptidases): 20.2 h
longer half-life than the native neuropeptide Dip-AST5 (in vitro [3]): 600 fold
resistance to midgut peptidases (in vitro [3]): completely resistant
Half-life, Midgut (in vitro [3]; tissue homogenate): ∞
half-life at 6 μM (brain peptidases): 180 h

IC50 ([1]; read-out: IC50): 2.12 nM
resistance to cleavage by membrane-bound enzymes (in vitro [3]): little resistance
half-life (brain peptidases): 0.287 h
half-life (midgut peptidases): 0.377 h
Compound: CC(C)C[C@H](NC(=O)CNC(=O)C1(NC(=O)[C@H](CC(N)=O)NC(=O)[C@H](Cc2ccc(O)cc2)NC(=O)[C@@H]2CCCN2C(=O)[C@H](CCCNC(=N)N)NC(=O)[C@H](C)N)Cc2ccccc2C1)C(N)=O [analog 396-1, Ala-Arg-Pro-Tyr-Asn-Aic-Gly-Leu-NH2] (HELM PEPTIDE1{A.R.P.Y.N.[O=C(C1(N[*:1])Cc2ccccc2C1)[*:2]].G.L.[am]}$$$$V2.0; N-terminus assumed)
bioactivity (inhibition of JH biosynthesis) [1]: significant bioactivity

Compound: CC(C)C[C@H](NC(=O)C1(NC(=O)[C@H](Cc2ccccc2)NC(=O)[C@H](CC(N)=O)NC(=O)[C@H](Cc2ccc(O)cc2)NC(=O)[C@@H]2CCCN2C(=O)[C@H](CCCNC(=N)N)NC(=O)[C@H](C)N)CC1)C(N)=O [analog 397-2, Ala-Arg-Pro-Tyr-Asn-Phe-Cpa-Leu-NH2] (HELM PEPTIDE1{A.R.P.Y.N.F.[O=C(C1(N[*:1])CC1)[*:2]].L.[am]}$$$$V2.0; N-terminus assumed)
IC50 [1, 5]: 172 nM
bioactivity (inhibition of JH biosynthesis) [1]: significant bioactivity
resistance to cleavage by membrane-bound enzymes (in vitro [3]): little resistance
half-life at 6 μM (brain peptidases): 1.01 h
half-life at 6 μM (midgut peptidases; Diploptera punctata): 0.347 h

Compound: CC(C)C[C@H](NC(=O)CNC(=O)[C@H](Cc1ccccc1)NC(=O)[C@H](CC(N)=O)NC(=O)[C@H](Cc1ccc(O)cc1)NC(=O)CC1c2ccccc2-c2ccccc21)C(N)=O [analog 525] (HELM PEPTIDE1{[O=C(CC1c2ccccc2-c2ccccc21)[*:2]].Y.N.F.G.L.[am]}$$$$V2.0)
release rate through the cuticle ([4]; 0.5 nmol applied to cuticle, rate stabilized after six hours): about 1.5 pmol/h
penetration of the cuticle ([4]; cockroach cuticle, result in words): penetrated the cuticle effectively

IC50 [1, 5]: 3.12 nM
IC50 ([1]; read-out: IC50): 3.1 nM
half-life at 6 μM (in vitro [2]; female, Diploptera punctata): 2.55 h
Compound: DRLYSFGL-NH2 [Dip-AST5, reference compound]

EC50 ([1]; in another assay, read-out: activity (ED50)): 0.644 nM
Compound: carboranyl propanoic acid-Ser-Phe-Gly-Leu-NH2 ({carboranyl propanoic acid}-SFGL-NH2)
